In ChEMBL document CHEMBL4265996, “Genetically-encoded fragment-based discovery of glycopeptide ligands for DC-SIGN” (Bioorg Med Chem, 2018):
The source made the active and inactive calls. The calls are words filed in the database; no cut-off is given here. Where a SMILES comes first, the peptide text is derived from it. The star is where a group is joined. X1 = O=C(/C=N/O[C@H]1O[C@H](CO)[C@@H](O)[C@H](O)[C@@H]1O)*; X2 = O=C(/C=N/O[C@H]1O[C@H](CO)[C@H](O)[C@H](O)[C@H]1O)*

Assays:
CD209 antigen [1] = target: T1, CD209 antigen (Homo sapiens, UniProt Q9NNX6); test: Inhibition of binding of trimannoside containing horseradish peroxidase to DC-SIGN carbohydrate binding domain (unknown origin) expressed in Escherichia coli preincubated for 1 hr followed by TMB substrate addition measured after 30 mins by ELISA
T1 sequence (Q9NNX6 whole entry): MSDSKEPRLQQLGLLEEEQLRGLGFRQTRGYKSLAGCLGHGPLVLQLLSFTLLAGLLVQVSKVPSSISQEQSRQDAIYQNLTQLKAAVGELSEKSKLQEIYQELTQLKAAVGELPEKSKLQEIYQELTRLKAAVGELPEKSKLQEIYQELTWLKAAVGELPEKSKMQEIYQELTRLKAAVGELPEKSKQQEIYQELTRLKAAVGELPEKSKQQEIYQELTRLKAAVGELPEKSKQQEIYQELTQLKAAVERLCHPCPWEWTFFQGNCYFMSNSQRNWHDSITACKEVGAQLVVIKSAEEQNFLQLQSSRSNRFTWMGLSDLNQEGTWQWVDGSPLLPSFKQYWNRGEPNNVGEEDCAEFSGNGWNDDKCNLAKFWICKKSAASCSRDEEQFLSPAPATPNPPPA

[2] = Binding affinity to ConA […] after 1 hr by ELISA
CD209 antigen [3] = target: T1, CD209 antigen; test: Binding affinity to DC-SIGN extracellular domain (unknown origin) expressed in Escherichia coli after 1 hr by ELISA
[4] = target: T2, CD209 antigen (Homo sapiens) (UniProt Q9NNX6); test: Binding affinity to recombinant human DC-SIGN expressed in human Raji cells preincubated with Cy5 conjugated compound for 2 hrs followed by washing and measured by flow cytometric analysis; assay type: cell-based
T2 sequence (whole entry): T1 sequence (Q9NNX6 whole entry)

[5] = target: T2, CD209 antigen (Homo sapiens); test: Binding affinity to recombinant human DC-SIGN expressed in rat-6 fibroblast preincubated with Cy5 conjugated compound for 2 hrs followed by washing and measured by flow cytometric analysis
[6] = target: C-type lectin domain family 4 member K (Homo sapiens) (UniProt Q9UJ71); test: Binding affinity to human langerin expressed in human Raji cells preincubated with Cy5 conjugated compound for 2 hrs followed by washing and measured by flow cytometric analysis; assay type: cell-based
C-type lectin domain family 4 member K (Homo sapiens), sequence (Q9UJ71 whole entry, the tested form may be a part): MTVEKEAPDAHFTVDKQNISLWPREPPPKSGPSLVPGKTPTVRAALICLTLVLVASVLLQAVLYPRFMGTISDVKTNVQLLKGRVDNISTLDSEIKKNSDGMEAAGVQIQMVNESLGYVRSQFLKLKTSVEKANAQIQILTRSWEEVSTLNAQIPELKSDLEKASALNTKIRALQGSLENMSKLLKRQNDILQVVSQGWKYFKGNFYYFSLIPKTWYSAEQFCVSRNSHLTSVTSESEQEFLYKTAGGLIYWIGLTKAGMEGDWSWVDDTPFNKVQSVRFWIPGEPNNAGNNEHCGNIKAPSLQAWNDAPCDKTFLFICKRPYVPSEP

| SMILES | IC50 (CD209 antigen [1]) [µM] | EC50 [2] | EC50 (CD209 antigen [3]) | further results |
| --- | --- | --- | --- | --- |
| OC[C@H]1O[C@H](O)[C@@H](O)[C@@H](O)[C@@H]1O | 6400 | – | – | – |
| [N-]=[N+]=NCCCCCCO[C@H]1O[C@H](CO[C@H]2O[C@H](CO)[C@@H](O)[C@H](O)[C@@H]2O)[C@@H](O)[C@H](O[C@H]2O[C@H](CO)[C@@H](O)[C@H](O)[C@@H]2O)[C@@H]1O | 1400 | – | – | – |
| CSCC[C@H](NC(=O)/C=N/O[C@H]1O[C@H](CO)[C@@H](O)[C@H](O)[C@@H]1O)C(=O)N1CCC[C@H]1C(=O)N[C@@H](C)C(=O)N[C@@H](Cc1c[nH]c2ccccc12)C(=O)N[C@@H](CCCNC(=N)N)C(=O)N[C@@H](Cc1cnc[nH]1)C(=O)N[C@@H](C)C(N)=O (X1-MPAWRHA-NH2) | – | > 1 ×10¹¹ PFU | 4 ×10⁸ PFU | Activity [4]: Active; Activity [5]: Active; Activity [6]: inactive |
| CC(C)[C@H](NC(=O)/C=N/O[C@H]1O[C@H](CO)[C@@H](O)[C@H](O)[C@@H]1O)C(=O)N[C@@H](CCC(=O)O)C(=O)N[C@@H](CCCCN)C(=O)N[C@@H](CC(N)=O)C(=O)N[C@@H](CC(=O)O)C(=O)N[C@@H](CCC(N)=O)C(=O)N[C@@H](CCCCN)C(=O)N[C@H](C(=O)N[C@@H](Cc1ccc(O)cc1)C(=O)N[C@@H](Cc1cnc[nH]1)C(=O)N[C@@H](C)C(N)=O)[C@@H](C)O (X1-VEKNDQKTYHA-NH2) | – | > 1 ×10¹¹ PFU | 2.6 ×10¹¹ PFU | Activity [5]: inactive |
| CSCC[C@H](NC(=O)/C=N/O[C@H]1O[C@H](CO)[C@H](O)[C@H](O)[C@H]1O)C(=O)N1CCC[C@H]1C(=O)N[C@@H](C)C(=O)N[C@@H](Cc1c[nH]c2ccccc12)C(=O)N[C@@H](CCCNC(=N)N)C(=O)N[C@@H](Cc1cnc[nH]1)C(=O)N[C@@H](C)C(N)=O (X2-MPAWRHA-NH2) | – | – | 3.7 ×10¹⁰ PFU | – |
| CC(C)[C@H](NC(=O)/C=N/O[C@H]1O[C@H](CO)[C@H](O)[C@H](O)[C@H]1O)C(=O)N[C@@H](CCC(=O)O)C(=O)N[C@@H](CCCCN)C(=O)N[C@@H](CC(N)=O)C(=O)N[C@@H](CC(=O)O)C(=O)N[C@@H](CCC(N)=O)C(=O)N[C@@H](CCCCN)C(=O)N[C@H](C(=O)N[C@@H](Cc1ccc(O)cc1)C(=O)N[C@@H](Cc1cnc[nH]1)C(=O)N[C@@H](C)C(N)=O)[C@@H](C)O (X2-VEKNDQKTYHA-NH2) | – | – | 2 ×10¹¹ PFU | – |
| CC[C@H](C)[C@H](NC(=O)[C@H](CO)NC(=O)[C@H](CO)NC(=O)/C=N/O[C@H]1O[C@H](CO)[C@@H](O)[C@H](O)[C@@H]1O)C(=O)N[C@H](C(=O)N[C@@H](Cc1cnc[nH]1)C(=O)N[C@@H](C)C(=O)N1CCC[C@H]1C(=O)N[C@@H](CO)C(N)=O)[C@@H](C)O (stereo in doubt) | – | > 1 ×10¹¹ PFU | 2.8 ×10⁹ PFU | – |
| CC(C)C[C@H](NC(=O)[C@H](CC(=O)O)NC(=O)[C@H](Cc1ccc(O)cc1)NC(=O)[C@H](Cc1c[nH]c2ccccc12)NC(=O)/C=N/OCCO[C@H]1O[C@H](CO)[C@@H](O)[C@H](O)[C@@H]1O)C(=O)N[C@@H](Cc1ccc(O)cc1)C(=O)N[C@@H](Cc1cnc[nH]1)C(N)=O (stereo in doubt) | – | 2.9 ×10⁹ PFU | – | – |
| CC[C@H](C)[C@H](NC(=O)[C@H](CO)NC(=O)/C=N/O[C@H]1O[C@H](CO)[C@@H](O)[C@H](O)[C@@H]1O)C(=O)N[C@H](C(=O)N[C@@H](Cc1cnc[nH]1)C(=O)N[C@@H](C)C(=O)N1CCC[C@H]1C(=O)N[C@@H](CO)C(N)=O)[C@@H](C)O (stereo in doubt) | 450 | – | – | – |
